{
  "source": "paper PMC11758394",
  "about": "“VCP downstream metabolite glycerol-3-phosphate (G3P) inhibits CD8^+T cells function in the HCC microenvironment” (Signal Transduction and Targeted Therapy, 2025)",
  "key": {"[1]": {"biological_target": "T1, region LCK(240-509AAs) (Homo sapiens, UniProt P06239)", "T1 construct": "purified fragment 240-509 (kinase domain)", "T1 sequence (P06239 240-509)": "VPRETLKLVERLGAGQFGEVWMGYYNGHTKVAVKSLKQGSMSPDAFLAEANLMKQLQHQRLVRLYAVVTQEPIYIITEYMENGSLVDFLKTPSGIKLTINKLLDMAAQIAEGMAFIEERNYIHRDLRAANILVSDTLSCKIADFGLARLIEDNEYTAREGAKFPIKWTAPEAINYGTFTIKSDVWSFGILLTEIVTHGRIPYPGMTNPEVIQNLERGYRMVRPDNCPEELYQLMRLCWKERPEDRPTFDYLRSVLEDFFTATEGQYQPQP", "assay": "SPR (Biacore 8K, protein on CM5 chip); also ITC", "conditions": "PBS; value not in text; binding of this fragment inferred because it contains 330-509"}, "[2]": {"biological_target": "T2, LCK (Homo sapiens, UniProt P06239)", "T2 construct": "purified full-length LCK", "T2 sequence (P06239 whole entry)": "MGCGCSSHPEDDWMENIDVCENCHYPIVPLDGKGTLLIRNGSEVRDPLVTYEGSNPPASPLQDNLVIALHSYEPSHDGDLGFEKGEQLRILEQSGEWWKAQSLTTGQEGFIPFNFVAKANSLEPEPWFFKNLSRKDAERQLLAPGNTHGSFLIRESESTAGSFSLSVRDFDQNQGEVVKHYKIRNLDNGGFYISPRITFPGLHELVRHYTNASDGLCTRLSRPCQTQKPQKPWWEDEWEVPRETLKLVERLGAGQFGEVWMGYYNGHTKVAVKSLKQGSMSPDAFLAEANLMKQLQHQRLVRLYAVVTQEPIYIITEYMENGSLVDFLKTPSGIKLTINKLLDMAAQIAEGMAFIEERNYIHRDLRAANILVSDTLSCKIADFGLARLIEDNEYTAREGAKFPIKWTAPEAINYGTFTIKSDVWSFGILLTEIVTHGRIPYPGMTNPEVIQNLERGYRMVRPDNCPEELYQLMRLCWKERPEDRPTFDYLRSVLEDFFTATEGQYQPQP", "assay": "SPR (Biacore 8K, protein on CM5 chip); also ITC", "format": "binding", "conditions": "PBS; value not in text"}},
  "data": [
    {"smiles": "O=P(O)(O)OC[C@H](O)CO", "note": "[G3P]", "values": [
      {"measurement": "Kd", "setting": "[1]", "result": "BIAcore measurement of the interaction between G3P and the purified region"},
      {"measurement": "Kd", "setting": "[2]", "result": "we demonstrated the interaction of LCK and G3P using surface plasmon resonance (BIAcore) experiment"}
    ]}
  ]
}
